Data reported in the supplement of paper PMC10307832.

compound: COc1cccc2c1C(=O)c1c(O)c3c(c(O)c1C2=O)C[C@@](O)(C(=O)CO)C[C@@H]3O[C@H]1C[C@H](N)[C@H](O)[C@H](C)O1 [Doxorubicin] + CC(=O)Nc1cccc(-n2c(=O)n(C3CC3)c(=O)c3c(Nc4ccc(I)cc4F)n(C)c(=O)c(C)c32)c1 [Trametinib] (partner 0.02 µM); experiment: relative viability (nuclei count vs DMSO), 5 days (fraction); higher = more cells survive; conditions: first compound 0.001 µM
Outline: (§1)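 Each reported value is a median over duplicate plates. It expresses relative viability: treated-well nuclei count divided by vehicle-well nuclei count. Lung cancer cell lines in 1536-well plates were dosed by pin tool a day after seeding, alone with one drug or with a fixed anchor-drug dose plus five library-drug doses (not always all listed) in √10 steps, and nuclei were counted after 5 days.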

Cell Line | relative viability
NCI-H1792 | 0.393
NCI-H2085 | 0.623
HCC-15 | 0.381
NCI-H1944 | 0.398
EKVX | 0.384
LCLC-103H | 0.704
NCI-H1993 | 0.667
NCI-H23 | 0.326
SK-MES-1 | 0.563
PC-14 | 0.751

same assay, conditions: first compound 0.003162 µM

Cell Line | relative viability
NCI-H1792 | 0.556
NCI-H2085 | 0.557
HCC-15 | 0.395
NCI-H1944 | 0.422
EKVX | 0.317
LCLC-103H | 0.725
NCI-H23 | 0.45
SK-MES-1 | 0.572
PC-14 | 0.74

same assay, conditions: first compound 0.01 µM

Cell Line | relative viability
NCI-H1792 | 0.456
NCI-H2085 | 0.564
HCC-15 | 0.393
NCI-H1944 | 0.385
EKVX | 0.368
LCLC-103H | 0.697
NCI-H1993 | 0.501
NCI-H23 | 0.344
SK-MES-1 | 0.513
PC-14 | 0.536

same assay, conditions: first compound 0.03162 µM

Cell Line | relative viability
NCI-H1792 | 0.392
NCI-H2085 | 0.472
HCC-15 | 0.379
NCI-H1944 | 0.399
EKVX | 0.39
LCLC-103H | 0.65
NCI-H1993 | 0.473
NCI-H23 | 0.334
SK-MES-1 | 0.283
PC-14 | 0.162

same assay, conditions: first compound 0.1 µM

Cell Line | relative viability
NCI-H1792 | 0.422
NCI-H2085 | 0.496
HCC-15 | 0.407
NCI-H1944 | 0.449
EKVX | 0.361
LCLC-103H | 0.623
NCI-H1993 | 0.513
NCI-H23 | 0.45
SK-MES-1 | 0.192
PC-14 | 0.0928

compound: COc1cccc2c1C(=O)c1c(O)c3c(c(O)c1C2=O)C[C@@](O)(C(=O)CO)C[C@@H]3O[C@H]1C[C@H](N)[C@H](O)[C@H](C)O1 [Doxorubicin] + C[C@]1(O)C[C@@H](c2nc(-c3ccc4ccc(-c5ccccc5)nc4c3)c3c(N)nccn32)C1 [Linsitinib] (partner 1 µM); experiment: as above; conditions: first compound 0.001 µM
Outline: as §1

Cell Line | relative viability
NCI-H1792 | 0.563
NCI-H2085 | 1.03
HCC-15 | 0.878
NCI-H1944 | 1.17
EKVX | 0.996
LCLC-103H | 0.935
NCI-H1993 | 0.711
SK-MES-1 | 0.952
PC-14 | 0.924

same assay, conditions: first compound 0.003162 µM

Cell Line | relative viability
NCI-H1792 | 0.612
NCI-H2085 | 0.927
HCC-15 | 0.842
NCI-H1944 | 1.23
EKVX | 0.922
LCLC-103H | 1.17
NCI-H1993 | 0.751
NCI-H23 | 0.539
SK-MES-1 | 1.07
PC-14 | 0.982

same assay, conditions: first compound 0.01 µM

Cell Line | relative viability
NCI-H1792 | 0.543
NCI-H2085 | 0.815
HCC-15 | 0.927
NCI-H1944 | 1.34
EKVX | 0.957
LCLC-103H | 1.06
NCI-H1993 | 0.741
NCI-H23 | 0.683
SK-MES-1 | 1.07
PC-14 | 0.959

same assay, conditions: first compound 0.03162 µM

Cell Line | relative viability
NCI-H1792 | 0.455
NCI-H2085 | 0.716
HCC-15 | 0.795
NCI-H1944 | 1.16
EKVX | 1.11
LCLC-103H | 1.17
NCI-H1993 | 0.659
NCI-H23 | 0.473
SK-MES-1 | 1.05
PC-14 | 0.922

same assay, conditions: first compound 0.1 µM

Cell Line | relative viability
NCI-H1792 | 0.474
NCI-H2085 | 0.82
HCC-15 | 0.725
NCI-H1944 | 1.3
EKVX | 0.879
LCLC-103H | 1.14
NCI-H1993 | 0.733
NCI-H23 | 0.638
SK-MES-1 | 0.936
PC-14 | 0.948

compound: COC1=C(C=C(C=C1)C2=CC3=NC=CN3C(=N2)NC4=C(C=CC=N4)C(=O)N)OC [BAY61-3606] + Cc1nc(NC(=O)N2CCC[C@H]2C(N)=O)sc1-c1ccnc(C(C)(C)C(F)(F)F)c1 [Alpelisib] (partner 2 µM); experiment: as above; conditions: first compound 0.02 µM
Outline: as §1

Cell Line | relative viability
NCI-H1792 | 0.743
NCI-H2085 | 0.994
HCC-15 | 0.836
NCI-H1944 | 0.911
EKVX | 0.916
LCLC-103H | 0.94
NCI-H1993 | 0.644
NCI-H23 | 0.776
SK-MES-1 | 1.02
PC-14 | 0.996

same assay, conditions: first compound 0.06325 µM

Cell Line | relative viability
NCI-H1792 | 0.673
NCI-H2085 | 0.977
HCC-15 | 0.94
NCI-H1944 | 0.867
EKVX | 0.886
LCLC-103H | 0.965
NCI-H1993 | 0.674
NCI-H23 | 0.594
SK-MES-1 | 0.968
PC-14 | 0.995

same assay, conditions: first compound 0.2 µM

Cell Line | relative viability
NCI-H1792 | 0.74
NCI-H2085 | 1.04
HCC-15 | 0.929
NCI-H1944 | 0.842
EKVX | 0.89
LCLC-103H | 0.981
NCI-H1993 | 0.719
NCI-H23 | 0.653
SK-MES-1 | 1
PC-14 | 0.929

same assay, conditions: first compound 0.6325 µM

Cell Line | relative viability
NCI-H1792 | 0.751
NCI-H2085 | 0.949
HCC-15 | 0.862
NCI-H1944 | 0.703
EKVX | 0.981
LCLC-103H | 1.03
NCI-H1993 | 0.758
NCI-H23 | 0.829
SK-MES-1 | 0.986
PC-14 | 1.06

same assay, conditions: first compound 2 µM

Cell Line | relative viability
NCI-H1792 | 0.674
NCI-H2085 | 0.871
HCC-15 | 0.768
NCI-H1944 | 0.505
EKVX | 0.744
LCLC-103H | 1.04
NCI-H1993 | 0.703
NCI-H23 | 0.41
SK-MES-1 | 0.7
PC-14 | 0.841

compound: COc1cccc2c1C(=O)c1c(O)c3c(c(O)c1C2=O)C[C@@](O)(C(=O)CO)C[C@@H]3O[C@H]1C[C@H](N)[C@H](O)[C@H](C)O1 [Doxorubicin] + CCNC(=O)c1noc(-c2cc(C(C)C)c(O)cc2O)c1-c1ccc(CN2CCOCC2)cc1 [Luminespib] (partner 0.01 µM); experiment: as above; conditions: first compound 0.001 µM
Outline: as §1

Cell Line | relative viability
NCI-H2085 | 0.471
NCI-H1944 | 0.725
EKVX | 0.784
LCLC-103H | 0.941
NCI-H1993 | 1.8
SK-MES-1 | 0.771
PC-14 | 0.173

same assay, conditions: first compound 0.003162 µM

Cell Line | relative viability
NCI-H1792 | 0.467
NCI-H2085 | 0.462
HCC-15 | 0.304
NCI-H1944 | 0.733
EKVX | 1.02
LCLC-103H | 1.06
NCI-H1993 | 0.859
NCI-H23 | 0.221
SK-MES-1 | 0.618
PC-14 | 0.181

same assay, conditions: first compound 0.01 µM

Cell Line | relative viability
NCI-H1792 | 0.43
NCI-H2085 | 0.46
HCC-15 | 0.312
NCI-H1944 | 0.751
EKVX | 0.828
LCLC-103H | 0.949
NCI-H1993 | 0.8
NCI-H23 | 0.235
SK-MES-1 | 0.487
PC-14 | 0.122

same assay, conditions: first compound 0.03162 µM

Cell Line | relative viability
NCI-H1792 | 0.527
NCI-H2085 | 0.47
HCC-15 | 0.231
NCI-H1944 | 0.674
EKVX | 0.847
LCLC-103H | 0.931
NCI-H1993 | 0.713
NCI-H23 | 0.18
SK-MES-1 | 0.199
PC-14 | 0.14

same assay, conditions: first compound 0.1 µM

Cell Line | relative viability
NCI-H1792 | 0.328
NCI-H2085 | 0.478
HCC-15 | 0.222
NCI-H1944 | 0.651
EKVX | 0.834
LCLC-103H | 0.864
NCI-H1993 | 0.727
NCI-H23 | 0.23
SK-MES-1 | 0.151
PC-14 | 0.116
